Values after ≈ are worked out from the molar mass of the structure shown. Where two headings read alike, the source gives them in different places.
What was measured:
[1] = system: VE 150 (VanB); test: MIC, VanB-type VRE strain VE 150; assay type: cell-based, Enterococcus; details: VE 150, VanB; read-out: MIC
How it was run: (§1)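 Read-out: lowest concentration inhibiting growth in broth microdilution, CLSI method. Water and broth-only wells acted as controls; in one case 10 μM vancomycin (final) was present with the compound.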

[2] = system: MRSA; test: Minimum bactericidal concentration against MRSA; assay type: cell-based, Staphylococcus aureus
Experimental: Plates were incubated overnight at 37°C and colony growth was inspected.

[3] = system: MRSA KS89; test: MIC, broth microdilution, MRSA KS89; assay type: cell-based, Staphylococcus aureus
How it was run: as §1

[4] = system: Clostridium difficile AIU ribotype 027; test: MIC, plate drop assay, C. difficile AIU ribotype 027; assay type: cell-based; details: C. difficile AIU ribotype 027
How it was run: (§2)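 Lawns of each strain were made in soft BHI agar (0.4%) supplemented with CaCl2⋅2H2O and MgCl2⋅6H2O. Twofold compound dilutions (10 μL) were spotted, air-dried and incubated overnight at 37°C anaerobically; MIC read as cleared spots, in triplicate with water as negative control.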

[5] = system: human T-lymphocyte (CEM) cells; test: Cytostatic activity, CEM cell proliferation; assay type: cell-based; details: mean ± SD of three experiments; highest concentration tested 250 µM; 3 days; read-out: Toxicity (IC50) CEM
How it was run: (§3)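 Test compounds, serially diluted, received an equal volume of cell suspension at 300,000–500,000 cells/mL. After 37°C incubation (2 days for L1210, 3 for CEM, 4 for HeLa), cells were enumerated by Coulter counting and 50%-inhibitory concentrations calculated per cell type.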

[6] = system: 33 clinical VRE isolates; test: MIC against a set of 33 clinical VRE isolates (range, MIC50, TI); assay type: cell-based, Enterococcus faecalis
How it was run: as §1

[7] = system: E. faecalis VSE 1; test: MIC, broth microdilution, vancomycin-sensitive E. faecalis (VSE 1); assay type: cell-based, Enterococcus faecalis
How it was run: as §1

[8] = system: S. aureus VISA/HIP5827; test: MIC, broth microdilution, vancomycin-intermediate S. aureus VISA HIP5827; assay type: cell-based, Staphylococcus aureus
How it was run: as §1

[9] = system: VE 152 (VanB); test: MIC, VanB-type VRE strain VE 152; assay type: cell-based, Enterococcus; details: VE 152, VanB; read-out: MIC
How it was run: as §1

[10] = system: L1210, CEM and HeLa cell lines; test: Cytostatic activity, average or summary over L1210, CEM and HeLa; assay type: cell-based
How it was run: as §3

[11] = system: MRSA KS1; test: MIC, broth microdilution, MRSA KS1; assay type: cell-based, Staphylococcus aureus
How it was run: as §1

[12] = system: Clostridium difficile ATJ ribotype 014/20; test: MIC, plate drop assay, C. difficile ATJ ribotype 014/20; assay type: cell-based; details: C. difficile ATJ ribotype 014/20
How it was run: as §2

[13] = system: human cervix carcinoma (HeLa) cells; test: Cytostatic activity, HeLa cell proliferation; assay type: cell-based; details: mean ± SD of three experiments; highest concentration tested 250 µM; 4 days; read-out: Toxicity (IC50) HeLa
How it was run: as §3

[14] = system: S. aureus VRSA; test: MIC, broth microdilution, vancomycin-resistant S. aureus (VRSA); assay type: cell-based, Staphylococcus aureus
How it was run: as §1

[15] = system: VE 148 (VanB); test: MIC, VanB-type VRE strain VE 148; assay type: cell-based, Enterococcus; details: VE 148, VanB; read-out: MIC
How it was run: as §1

[16] = system: S. aureus VSSA (ATCC 6538); test: MIC, broth microdilution, vancomycin-sensitive S. aureus (VSSA/MSSA, ATCC 6538); assay type: cell-based, Staphylococcus aureus
How it was run: as §1

[17] = system: E. faecalis VRE 29; test: MIC, broth microdilution, vancomycin-resistant E. faecalis VRE 29 (VanA); assay type: cell-based, Enterococcus faecalis
How it was run: as §1

[18] = system: VE 82 (VanC1); test: MIC, VanC1-type VRE strain VE 82; assay type: cell-based, Enterococcus gallinarum; details: VE 82, VanC1; read-out: MIC
How it was run: as §1

[19] = system: E. faecalis VRE 37; test: MIC, broth microdilution, vancomycin-resistant E. faecalis VRE 37 (VanA); assay type: cell-based, Enterococcus faecalis
How it was run: as §1

[20] = system: VE 149 (VanB); test: MIC, VanB-type VRE strain VE 149; assay type: cell-based, Enterococcus; details: VE 149, VanB; read-out: MIC
How it was run: as §1

[21] = system: MRSA KS6; test: MIC, broth microdilution, MRSA KS6; assay type: cell-based, Staphylococcus aureus
How it was run: as §1

[22] = system: MRSA KS2; test: MIC, broth microdilution, MRSA KS2; assay type: cell-based, Staphylococcus aureus
How it was run: as §1

[23] = system: E. faecalis VRE 6; test: MIC, broth microdilution, vancomycin-resistant E. faecalis VRE 6 (VanA); assay type: cell-based, Enterococcus faecalis
How it was run: as §1

[24] = system: E. faecalis VRE 53; test: MIC, broth microdilution, vancomycin-resistant E. faecalis VRE 53 (VanA); assay type: cell-based, Enterococcus faecalis
How it was run: as §1

[25] = system: VE 157 (VanB); test: MIC, VanB-type VRE strain VE 157; assay type: cell-based, Enterococcus; details: VE 157, VanB; read-out: MIC
How it was run: as §1

[26] = system: 24 clinical MRSA isolates; test: MIC against a set of 24 clinical MRSA isolates (range, MIC50, TI); assay type: cell-based, Staphylococcus aureus
How it was run: as §1

[27] = system: Murine leukemia (L1210) cells; test: Cytostatic activity, L1210 cell proliferation; assay type: cell-based; details: mean ± SD of three experiments; highest concentration tested 250 µM; 2 days; read-out: Toxicity (IC50) L1210
How it was run: as §3

For `CCCCc1ccc(NC(=O)CNC(=O)[C@H]2NC(=O)[C@H]3NC(=O)[C@H](NC(=O)[C@@H]4NC(=O)[C@H](CC(N)=O)NC(=O)[C@H](NC(=O)[C@@H](CC(C)C)NC)[C@H](O)c5ccc(c(Cl)c5)Oc5cc4cc(c5O[C@@H]4O[C@H](CO)[C@@H](O)[C@H](O)[C@H]4O[C@H]4C[C@](C)(N)[C@H](O)[C@H](C)O4)Oc4ccc(cc4Cl)[C@H]3O)c3ccc(O)c(c3)-c3c(O)cc(O)cc32)cc1` [Vanc-39], the MIC [1] was 1.56 µM (≈ 2.55 µg/mL), the “MBC relative to MIC” value [2] was “MBC equaling their MIC values” and the “MIC-fold improvement vs. vancomycin” value ([3]; MRSA KS8, ratio of MIC of vancomycin and MIC of analogue) was 4. For the same compound, the MIC ([3]; Staphylococcus aureus MRSA KS8, read-out: MIC) was 0.20 µM (≈ 0.328 µg/mL), the “MIC-fold improvement vs. vancomycin” value [4] was 14 and the IC50 [5] was > 250 µM. For the same compound, the “MIC Range” value ([6]; 33 clinical VRE isolates) was 0.78 to 12.5 µM, the “TI (IC50/MIC50)” value ([6]; in vitro therapeutic index, VRE) was 80 and the MIC50 ([6]; median MIC, 33 clinical VRE isolates, read-out: MIC50) was 3.13 µM (≈ 5.13 µg/mL). The MIC ([7]; Enterococcus faecalis VSE 1 (vancomycin-sensitive), read-out: MIC) was 0.20 µM (≈ 0.328 µg/mL), the “MIC-fold improvement vs. vancomycin” value ([7]; VSE 1, ratio of MIC of vancomycin and MIC of analogue) was 8 and the MIC ([8]; Staphylococcus aureus VISA/HIP5827, read-out: MIC) was 0.39 µM (≈ 0.639 µg/mL). For the same compound, the “MIC-fold improvement vs. vancomycin” value ([8]; VISA/HIP5827, ratio of MIC of vancomycin and MIC of analogue) was 16, the MIC [9] was 0.78 µM (≈ 1.28 µg/mL) and the IC50 ([10]; average IC50 used for TI in Table S5, >250 entered as 250, read-out: IC50) was 250 µM. The IC50 ([10]; average of L1210, CEM and HeLa, read-out: Toxicity (IC50) Average) was > 250 µM, the IC50 ([10]; summary over the three cell lines, read-out: IC50 (L1210, CEM, HeLa), depending on the cell line used) was > 250 µM and the “MIC-fold improvement vs. vancomycin” value ([11]; MRSA KS1, ratio of MIC of vancomycin and MIC of analogue) was 4. The MIC ([11]; Staphylococcus aureus MRSA KS1, read-out: MIC) was 0.20 µM (≈ 0.328 µg/mL), the “MIC-fold improvement vs. vancomycin” value [12] was 22 and the IC50 [13] was > 250 µM. The MIC ([14]; Staphylococcus aureus VRSA, read-out: MIC) was 0.78 µM (≈ 1.28 µg/mL), the “MIC-fold improvement vs. vancomycin” value ([14]; VRSA, ratio of MIC of vancomycin and MIC of analogue) was 128 and the MIC [15] was 3.13 µM (≈ 5.13 µg/mL). The MIC ([16]; Staphylococcus aureus VSSA, read-out: MIC) was 0.05 µM (≈ 0.0819 µg/mL), the “MIC-fold improvement vs. vancomycin” value ([16]; VSSA, ratio of MIC of vancomycin and MIC of analogue) was 16 and the MIC ([17]; Enterococcus faecalis VRE 29 (vancomycin-resistant), read-out: MIC) was 6.25 µM (≈ 10.2 µg/mL). For the same compound, the “MIC-fold improvement vs. vancomycin” value ([17]; VRE 29, ratio of MIC of vancomycin and MIC of analogue) was 64, the MIC [18] was 0.78 µM (≈ 1.28 µg/mL) and the MIC ([19]; Enterococcus faecalis VRE 37 (vancomycin-resistant), read-out: MIC) was 6.25 µM (≈ 10.2 µg/mL). The “MIC-fold improvement vs. vancomycin” value ([19]; VRE 37, ratio of MIC of vancomycin and MIC of analogue) was 64, the MIC [20] was 0.78 µM (≈ 1.28 µg/mL) and the “MIC-fold improvement vs. vancomycin” value ([21]; MRSA KS6, ratio of MIC of vancomycin and MIC of analogue) was 4. For the same compound, the MIC ([21]; Staphylococcus aureus MRSA KS6, read-out: MIC) was 0.20 µM (≈ 0.328 µg/mL), the “MIC-fold improvement vs. vancomycin” value ([22]; MRSA KS2, ratio of MIC of vancomycin and MIC of analogue) was 4 and the MIC ([22]; Staphylococcus aureus MRSA KS2, read-out: MIC) was 0.20 µM (≈ 0.328 µg/mL). The MIC ([23]; Enterococcus faecalis VRE 6 (vancomycin-resistant), read-out: MIC) was 3.13 µM (≈ 5.13 µg/mL), the “MIC-fold improvement vs. vancomycin” value ([23]; VRE 6, ratio of MIC of vancomycin and MIC of analogue) was 64 and the MIC ([24]; Enterococcus faecalis VRE 53 (vancomycin-resistant), read-out: MIC) was 50 µM (≈ 81.9 µg/mL). For the same compound, the “MIC-fold improvement vs. vancomycin” value ([24]; VRE 53, ratio of MIC of vancomycin and MIC of analogue) was 8, the MIC [25] was 0.78 µM (≈ 1.28 µg/mL) and the “TI (IC50/MIC50)” value ([26]; in vitro therapeutic index, MRSA) was 641. For the same compound, the MIC50 ([26]; median MIC, 24 clinical MRSA isolates, read-out: MIC50) was 0.39 µM (≈ 0.639 µg/mL) and the IC50 [27] was > 250 µM.

— PMC6001238, “Iterative Chemical Engineering of Vancomycin Leads to Novel Vancomycin Analogs With a High in Vitro Therapeutic Index” (Frontiers in Microbiology, 2018)
